Drawing on patent US8173638B2 (Boehringer Ingelheim International GmbH, priority 2006, dated 2012), this text covers Emax and EC50 for 32 molecules.

The experiment addresses T1, human CB2R (Homo sapiens, UniProt P34972).
T1 construct: host or cells: CHO cells
As to the kind of experiment: CB2R mediated modulation of cAMP synthesis. The following applies: for Emax: 0.5 h, read-out: Agonist Efficacy (%). In kind it is cell-based. Put shortly:
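CHO cells expressing human CB2R treated with compound 30 min at 37 °C in buffer with 1 mM IBMX, 0.25% BSA and 10 uM forskolin. cAMP measured after lysis by DiscoverX-XS kit.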

Where [1] appears, read: CHO cells expressing human CB2R, cAMP inhibited by 1 uM CP55940 defined as 100%.

Like-named read-outs stand apart in the source and are kept apart here.

T1 sequence (P34972 whole entry): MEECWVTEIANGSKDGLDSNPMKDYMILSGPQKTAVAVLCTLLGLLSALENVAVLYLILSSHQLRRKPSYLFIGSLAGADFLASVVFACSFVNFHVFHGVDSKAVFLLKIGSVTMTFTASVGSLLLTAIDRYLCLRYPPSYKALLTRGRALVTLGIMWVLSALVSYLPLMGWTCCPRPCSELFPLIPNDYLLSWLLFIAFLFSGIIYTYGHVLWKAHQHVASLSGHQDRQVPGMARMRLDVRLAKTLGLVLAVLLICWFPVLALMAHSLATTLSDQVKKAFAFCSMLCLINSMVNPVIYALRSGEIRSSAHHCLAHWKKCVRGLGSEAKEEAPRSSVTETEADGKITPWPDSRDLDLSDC

For orientation: EC50 means the midpoint of the concentration-response curve. Consider `CC(C)c1ccc(NC(=O)N2CCCN(C(=O)c3ccc(Cl)cc3)CC2)cc1` [Compound 41, 4-(4-Chloro-benzoyl)-[1,4]diazepane-1-carboxylic acid (4-isopropyl-phenyl)-amide], for which, under setting [1], the Emax is 95%. Under “read-out: hCB2 cAMP EC50”, the EC50 was determined as 43 nM. For `O=C(CC1CCCC1)N1CCCN(C(=O)Nc2ccc3ccccc3c2)CC1` [Compound 48, 4-(2-Cyclopentyl-acetyl)-[1,4]diazepane-1-carboxylic acid (2-naphthyl)-amide], under setting [1], the Emax came to 100%. The EC50 (read-out: hCB2 cAMP EC50) was determined as 53 nM.

With `CCCCCc1ccc(NC(=O)N2CCCN(C(=O)CC3CCCC3)CC2)cc1` [Compound 49, 4-(2-Cyclopentyl-acetyl)-[1,4]diazepane-1-carboxylic acid (4-n-pentyl-phenyl)-amide], the Emax under setting [1] was found to be 73%. Moreover, where the note is “read-out: hCB2 cAMP EC50”, the EC50 was found to be 48 nM. `CCC(C)c1ccc(NC(=O)N2CCCN(C(=O)CC3CCCC3)CC2)cc1` (stereo not drawn) [Compound 52, 4-(2-Cyclopentyl-acetyl)-[1,4]diazepane-1-carboxylic acid (4-sec-butyl-phenyl)-amide]: the EC50 stood at 7.1 nM. Moreover, where the note is “CHO”, the Emax came to 98%.

Regarding `CC(C)c1ccc(NC(=O)N2CCCN(C(=O)CCC3CC3)CC2)cc1` [Compound 55, 4-(3-Cyclopropyl-propionyl)-[1,4]diazepane-1-carboxylic acid (4-isopropyl-phenyl)-amide], the Emax under setting [1] is 105%. Besides, where the note is “read-out: hCB2 cAMP EC50”, the EC50 is 89 nM. On the same counts, the results for `CC(C)c1ccc(NC(=O)N2CCCN(C(=O)CCC3CCCCC3)CC2)cc1` [Compound 56, 4-(3-Cyclohexyl-propionyl)-[1,4]diazepane-1-carboxylic acid (4-isopropyl-phenyl)-amide] are 103% and 22 nM.

`CC(C)c1ccc(NC(=O)N2CCCN(C(=O)CC(C)(C)C)CC2)cc1` [Compound 60, 4-(3,3-Dimethyl-butyryl)-[1,4]diazepane-1-carboxylic acid (4-isopropyl-phenyl)-amide]: the EC50 is 78 nM. Besides, for the setting “CHO”, the Emax amounted to 71%. For `O=C(Nc1ccc2ccccc2c1)N1CCCN(C(=O)C2CCCCC2)CC1` [Compound 68, 4-Cyclohexanecarbonyl-[1,4]diazepane-1-carboxylic acid naphthalen-2-ylamide], under setting [1], the Emax was determined as 99%. Moreover, the EC50 (read-out: hCB2 cAMP EC50) is 26 nM.

In the case of `O=C(Nc1ccc(C(F)(F)F)cc1)N1CCCN(C(=O)C2CCC(F)(F)CC2)CC1` [Compound 78, 4-(4,4-Difluoro-cyclohexanecarbonyl)-[1,4]diazepane-1-carboxylic acid (4-trifluoromethyl-phenyl)-amide], the Emax under setting [1] came out at 87%. Further, the EC50 (read-out: hCB2 cAMP EC50) amounted to 71 nM. On the same counts, the results for `O=C(Nc1ccc2ccccc2c1)N1CCCN(C(=O)c2ccc(Cl)cc2)CC1` [Compound 79, 4-(4-Chloro-benzoyl)-[1,4]diazepane-1-carboxylic acid naphthalen-2-ylamide] are 100% and 46 nM.

On to `O=C(Nc1ccc(SC(F)(F)F)cc1)N1CCCN(C(=O)C2CCCCC2)CC1` [Compound 80, 4-Cyclohexanecarbonyl-[1,4]diazepane-1-carboxylic acid (4-trifluoromethylsulfanyl-phenyl)-amide], for which, under setting [1], the Emax turned out to be 99%. Moreover, the EC50 (read-out: hCB2 cAMP EC50) is 12 nM. For `O=C(Nc1ccc(SC(F)(F)F)cc1)N1CCCN(C(=O)C2CCOCC2)CC1` [Compound 81, 4-(Tetrahydro-pyran-4-carbonyl)-[1,4]diazepane-1-carboxylic acid (4-trifluoromethylsulfanyl-phenyl)-amide], the Emax under setting [1] came out at 96%. Besides, the EC50 (read-out: hCB2 cAMP EC50) was 120 nM. On the same counts, the results for `O=C(CC1CCCC1)N1CCCN(C(=O)Nc2ccc(SC(F)(F)F)cc2)CC1` [Compound 82, 4-(2-cyclopentyl-acetyl)-[1,4]diazepane-1-carboxylic acid (4-trifluoromethylsulfanyl-phenyl)-amide] are 92% and 36 nM. For `O=C(Nc1ccc2ccccc2c1)N1CCCN(C(=O)c2ccc(Cl)c(Cl)c2)CC1` [Compound 86, 4-(3,4-Dichloro-benzoyl)-[1,4]diazepane-1-carboxylic acid naphthalen-2-ylamide], in that order: 92% and 52 nM.

Regarding `N#Cc1ccc(C(=O)N2CCCN(C(=O)Nc3ccc4ccccc4c3)CC2)cc1` [Compound 88, 4-(4-Cyano-benzoyl)-[1,4]diazepane-1-carboxylic acid naphthalen-2-ylamide], the Emax under setting [1] was 97%. For the setting “read-out: hCB2 cAMP EC50”, the EC50 was found to be 36 nM. In the case of `O=C(Nc1ccc2ccccc2c1)N1CCCN(C(=O)c2cc(Cl)ccc2Cl)CC1` [Compound 90, 4-(2,5-Dichloro-benzoyl)-[1,4]diazepane-1-carboxylic acid naphthalen-2-ylamide], the Emax under setting [1] turned out to be 91%. Moreover, the EC50 (read-out: hCB2 cAMP EC50) was found to be 20 nM. Turning to `O=C(Nc1ccc2ccccc2c1)N1CCCN(C(=O)c2ccc(C(F)(F)F)cc2)CC1` [Compound 92, 4-(4-Trifluoromethyl-benzoyl)-[1,4]diazepane-1-carboxylic acid naphthalen-2-ylamide], under setting [1], the Emax was 96%. Besides, the EC50 (read-out: hCB2 cAMP EC50) amounted to 14 nM. For `CC(C)CCC(=O)N1CCCN(C(=O)Nc2ccc3ccccc3c2)CC1` [Compound 94, 4-(4-Methyl-pentanoyl)-[1,4]diazepane-1-carboxylic acid naphthalen-2-ylamide], in that order: 98% and 89 nM. As for `O=C(Nc1ccc2ccccc2c1)N1CCCN(C(=O)c2ccc(Cl)cc2Cl)CC1` [Compound 99, 4-(2,4-Dichloro-benzoyl)-[1,4]diazepane-1-carboxylic acid naphthalen-2-ylamide], the Emax under setting [1] is 102%. Besides, the EC50 (read-out: hCB2 cAMP EC50) came out at 100 nM. With `CC(C)(C)c1ccc(NC(=O)N2CCCN(C(=O)CC3CCCCC3)CC2)cc1` [Compound 107, 4-(2-Cyclohexyl-acetyl)-[1,4]diazepane-1-carboxylic acid (4-tert-butyl-phenyl)-amide], under setting [1], the Emax worked out at 94%. Further, under “read-out: hCB2 cAMP EC50”, the EC50 turned out to be 100 nM. For the molecule `CC(C)(C)c1ccc(NC(=O)N2CCCN(C(=O)CCC3CCCCC3)CC2)cc1` [Compound 108, 4-(3-Cyclohexyl-propionyl)-[1,4]diazepane-1-carboxylic acid (4-tert-butyl-phenyl)-amide], the Emax under setting [1] is 96%. Moreover, the EC50 (read-out: hCB2 cAMP EC50) is 21 nM.

Take `CC(C)(C)c1ccc(NC(=O)N2CCCN(C(=O)c3ccc(Cl)c(Cl)c3)CC2)cc1` [Compound 110, 4-(3,4-Dichloro-benzoyl)-[1,4]diazepane-1-carboxylic acid (4-tert-butyl-phenyl)-amide]: the Emax under setting [1] is 97%. The EC50 (read-out: hCB2 cAMP EC50) stood at 64 nM. On the same counts, the results for `CC(C)(C)c1ccc(NC(=O)N2CCCN(C(=O)c3ccc(C#N)cc3)CC2)cc1` [Compound 112, 4-(4-Cyano-benzoyl)-[1,4]diazepane-1-carboxylic acid (4-tert-butyl-phenyl)-amide] are 109% and 19 nM. Regarding `CC(C)(C)c1ccc(NC(=O)N2CCCN(C(=O)CN3CCSCC3)CC2)cc1` [Compound 121, 4-(2-Thiomorpholin-4-yl-acetyl)-[1,4]diazepane-1-carboxylic acid (4-tert-butyl-phenyl)-amide], the Emax under setting [1] was found to be 103%. Besides, the EC50 (read-out: hCB2 cAMP EC50) was determined as 36 nM. For the molecule `Cc1ccc(C(=O)N2CCCN(C(=O)Nc3ccc(C(C)(C)C)cc3)CC2)cc1` [Compound 122, 4-(4-Methyl-benzoyl)-[1,4]diazepane-1-carboxylic acid (4-tert-butyl-phenyl)-amide], the Emax under setting [1] worked out at 101%. The EC50 (read-out: hCB2 cAMP EC50) came to 100 nM.

With `O=C(Nc1ccc(C(F)(F)F)cc1)N1CCCN(C(=O)c2ccc(C(F)(F)F)cc2)CC1` [Compound 127, 4-(4-Trifluoromethyl-benzoyl)-[1,4]diazepane-1-carboxylic acid (4-trifluomethyl-phenyl)-amide], the Emax under setting [1] was determined as 100%. Further, the EC50 (read-out: hCB2 cAMP EC50) came out at 75 nM. With `O=C(Nc1ccc(C(F)(F)F)cc1)N1CCCN(C(=O)C2CCCCC2)CC1` [Compound 128, 4-Cyclohexanecarbonyl-[1,4]diazepane-1-carboxylic acid (4-trifluoromethyl-phenyl)-amide], the Emax under setting [1] was 107%. Further, under “read-out: hCB2 cAMP EC50”, the EC50 came to 71 nM. As to `O=C(CC1CCCC1)N1CCCN(C(=O)Nc2ccc(Br)c(C(F)(F)F)c2)CC1` [Compound 132, 4-(2-Cyclopentyl-acetyl)-[1,4]diazepane-1-carboxylic acid (4-bromo-3-trifluoromethyl-phenyl)-amide], under setting [1], the Emax worked out at 104%. For the same molecule, for the setting “read-out: hCB2 cAMP EC50”, the EC50 is 13 nM. On the same counts, the results for `CCC(C)c1ccc(NC(=O)N2CCCN(C(=O)C3CCOCC3)CC2)cc1` (stereo not drawn) [Compound 133, 4-(Tetrahydro-pyran-4-carbonyl)-[1,4]diazepane-1-carboxylic acid (4-sec-butyl-phenyl)-amide] are 97% and 7.8 nM. Turning to `CC(C)(C)c1cc(NC(=O)N2CCCN(C(=O)CC3CCCC3)CC2)no1` [Compound 140, 4-(2-Cyclopentyl-acetyl)-[1,4]diazepane-1-carboxylic acid (5-tert-butyl-isoxazol-3-yl)-amide], the EC50 was 12 nM. The Emax (CHO) came out at 103%. Consider `CC(C)(C)c1cc(NC(=O)N2CCCN(C(=O)c3ccc(Cl)cc3)CC2)no1` [Compound 141, 4-(4-Chloro-benzoyl)-[1,4]diazepane-1-carboxylic acid (5-tert-butyl-isoxazol-3-yl)-amide], for which the Emax under setting [1] stood at 101%. The EC50 (read-out: hCB2 cAMP EC50) was 11 nM. In the case of `CC(C)(C)c1cc(NC(=O)N2CCCN(C(=O)C3CCOCC3)CC2)no1` [Compound 142, 4-(Tetrahydro-pyran-4-carbonyl)-[1,4]diazepane-1-carboxylic acid (5-tert-butyl-isoxazol-3-yl)-amide], for the setting “CHO”, the Emax was determined as 110%.
